Measurements as given in paper PMC12670160, “A drug-repurposing screen of FDA- and EMA-approved drugs identifies two NF-κB inhibitors active against eumycetoma” (Journal of Antimicrobial Chemotherapy, 2025).
≈ marks a conversion by molar mass, not a printed value. Entries after “also recorded” stand apart in the source; their conditions may differ. Where a name gives a salt, the structure may show the parent alone.

How the values were obtained:
Rhodnius prolixus = tested on: Rhodnius prolixus; parameters: method as in PMID 30233391; conditions: insect vector Rhodnius prolixus; cited from earlier work
[1] = tested on: healthy uninfected G. mellonella larvae; conditions: 20 µL of 20 µM injected; for Toxicity in G. mellonella larvae at 20 µM: 10 day observation, toxic if more than 20% of larvae died; for larval survival: 10 days, uninfected larvae
Method: (§1) For in vivo experiments, sixth-week instar G. mellonella larvae were purchased from Blue-Lagoon, Maassluis, The Netherlands. The larvae were raised and kept in the dark at room temperature. Larvae without any discoloration and weighing around 500 mg were selected for experiments.
To determine the toxicity, 15 healthy uninfected larvae were injected with 20 µL of 20 µM compound as previously described.[16] […] As a control, a separate group of larvae were injected with 20 µL of PBS. Larvae were housed in Petri dishes with Whatman paper at 37°C in the dark. Survival was monitored for 10 days.

[2] = tested on: M. mycetomatis strain mm55; experiment: IC50 and MIC determination, CellTiter-Glo, strain mm55; format: cell-based, Madurella mycetomatis; conditions: Madurella mycetomatis; for IC50: concentration inhibiting 50% of fungal hyphae growth; for MIC: concentration with complete growth inhibition
[3] = tested on: vancomycin-resistant Staphylococcus aureus strains; conditions: cited from earlier work
[4] = tested on: M. mycetomatis MM55-infected G. mellonella larvae; experiment: Therapeutic efficacy in M. mycetomatis-infected G. mellonella larvae (survival, log-rank); format: in vivo, Galleria mellonella; conditions: 20 µL of 20 µM at 4, 28 and 52 h post infection; 10 days
Method: as §1
The wet weight was determined and 10 mL of PBS per gram of mycelia was added. The suspension was then sonicated for 2 min to achieve a particle size of 10 µm. The fungal suspension (4 mg/40 µL) was injected into the last left pro-leg of a healthy G. mellonella larva with an insulin 29G U-100 needle to reach a final inoculum of 4 mg/larva. Larvae were placed in Petri dishes containing Whatman paper in a 37°C incubator.
A control group was also included in which M. mycetomatis-infected larvae were treated with PBS or with 1 mg/kg amphotericin B (Fungizone, Bristol Myers Squibb, Utrecht, The Netherlands). […] The treatment was repeated at 28 h post infection and 52 h post infection via different prolegs. The infection was monitored for 10 days.
To compare the survival rates between PBS treatment control and the different experimental groups a log-rank test was performed. All data were processed and performed in GraphPad Prism 10.

M. mycetomatis [5] = experiment: In vitro susceptibility, averages over M. mycetomatis isolates (average metabolic activity at 2 µM, mean MIC); format: cell-based; conditions: Madurella mycetomatis, 96 h, 4 days at 37°C, CellTiter-Glo, average of 3 isolates, 20% or below = inhibition
M. mycetomatis strain P1 [6] = experiment: IC50 and MIC determination, CellTiter-Glo, strain P1; format: cell-based, Madurella mycetomatis; conditions: Madurella mycetomatis, P1
M. mycetomatis strain I1 [7] = experiment: IC50 and MIC determination, CellTiter-Glo, strain I1; format: cell-based, Madurella mycetomatis; conditions: Madurella mycetomatis, I1
eumycetoma = conditions: cited from earlier work
M. mycetomatis [8] = tested on: M. mycetomatis; parameters: method as in PMID 35398930, PMID 15793113, PMID 36005544, PMID 34181477, PMID 22964246; conditions: against M. mycetomatis; cited from earlier work
[9] = tested on: M. mycetomatis-infected G. mellonella larvae; conditions: M. mycetomatis-infected G. mellonella larvae; cited from earlier work
[10] = tested on: M. mycetomatis mouse model; parameters: method as in PMID 26150103; conditions: cited from earlier work
[11] = tested on: primary human neutrophils exposed to C. albicans; parameters: method as in PMID 19609651; conditions: cited from earlier work
M. mycetomatis [12] = tested on: M. mycetomatis; parameters: method as in PMID 34209118; conditions: in vitro; cited from earlier work
M. mycetomatis strain P1 [13] = experiment: microbe, parasite or virus in culture; parameters: species or system Madurella mycetomatis hyphae; conditions: Madurella mycetomatis, P1, 96 h
Method: (§2) The Oncode Drug Repurposing library was based on the drug repurposing library from the Drug Repurposing Hub of the Broad Institute and recreated by the Oncode institute.[13] The library contained 5631 drugs.[18] A copy of this library was plated out on 384-well plates with lids (cat no. 655180; Greiner Bio-One, Alphen aan den Rijn, The Netherlands) by the Leiden University Medical Center. Each well of the 384-well plates contained 0.6 µL of a 200 µM stock concentration of compound, resulting in a final concentration of 2 µM when the fungus was added. From the previous libraries we screened, we noted that there are several compounds able to inhibit M. mycetomatis at this concentration in vitro. Furthermore, this concentration could also be reached in the G. mellonella larvae.[8],[11] The prepared 384-well plates were transferred on dry ice to the Erasmus MC and stored at −80°C until they were screened. We created a second library from the original library, containing only those 29 compounds that were active in the first screen. […] To determine the in vitro susceptibility of M. mycetomatis to the compounds, a hyphal inoculum was prepared as described elsewhere.[19] This M. mycetomatis hyphal suspension (60 µL) was added to each of the wells in the 384-well plate, leading to a final testing concentration of 2 µM per compound. Each plate also contained a growth control (60 µL of M. mycetomatis hyphal suspension, plus 0.6 µL of DMSO) and a negative control (60 µL of culture medium, plus 0.6 µL of DMSO). Plates were then incubated for 4 days at 37°C, after which 30 µL of CellTiter-Glo 3D Cell Viability reagent was added to every well.[19] After 25 min of incubation at room temperature, the luminescence was measured with a CytoFluor Series 4000 luminometer (PerSeptive Biosystems, Framingham, MA, USA). To determine the metabolic activity, the following formula was used: For each of these 29 active compounds, the IC50 and MIC were determined for M. mycetomatis strains MM55, P1 and I1 (Table 1 and Table S1).

[14] = tested on: M. mycetomatis strain mm55; experiment: microbe, parasite or virus in culture; parameters: species or system Madurella mycetomatis hyphae; conditions: Madurella mycetomatis, MM55, 96 h
Method: as §2

M. mycetomatis strain I1 [15] = experiment: microbe, parasite or virus in culture; parameters: species or system Madurella mycetomatis hyphae; conditions: Madurella mycetomatis, I1, 96 h
Method: as §2

thioredoxin reductase = tested on: thioredoxin reductase; parameters: method as in PMID 39816643; conditions: cited from earlier work
[16] = tested on: itraconazole-susceptible and itraconazole-resistant Aspergillus fumigatus; parameters: method as in PMID 37037064; conditions: cited from earlier work

For O=C(Nc1cc(C(F)(F)F)cc(C(F)(F)F)c1)c1cc(Cl)ccc1O [IKK2 inhibitor V (IMD-0354), IMD-0354], the “expression of antimicrobial peptides” value (Rhodnius prolixus) is listed as “decreased”, the “mortality after Trypanosoma cruzi infection” value (Rhodnius prolixus) is listed as “reduced mortality” and the “Toxicity in G. mellonella larvae at 20 µM” value [1] is listed as “not toxic”. The larval survival [1] was “above 80%”, the IC50 [2] was 1.76 µM and the MIC [2] was 2 µM (≈ 0.767 µg/mL). The MIC ([3]; Gram-positive vancomycin-resistant Staphylococcus aureus strains) was 0.06 µg/mL (≈ 0.156 µM), the biofilm formation ([3]; vancomycin-resistant staphylococci) was “able to inhibit biofilm formation” and the “Survival of M. mycetomatis-infected larvae versus PBS” value [4] was “prolonged the survival; also recorded: prolonged larval survival”. It also gave an activity at 2 µM (M. mycetomatis [5]) of 2.3%, an IC50 (M. mycetomatis strain P1 [6]) of 0.17 µM and an MIC (M. mycetomatis strain P1 [6]) of 0.25 µM (≈ 0.0959 µg/mL). It also gave an IC50 (M. mycetomatis strain I1 [7]) of 1.68 µM and an MIC (M. mycetomatis strain I1 [7]) of 2 µM (≈ 0.767 µg/mL).
For CCC(C)n1ncn(-c2ccc(N3CCN(c4ccc(OCC5COC(Cn6cncn6)(c6ccc(Cl)cc6Cl)O5)cc4)CC3)cc2)c1=O (stereo not drawn) [Itraconazole hydrochloride], the “lesion size or β-glucan levels” value (eumycetoma; 400 mg/day, first 6 months of treatment) is given as “no reduction”, the cure rate (eumycetoma; itraconazole combined with surgery, clinical trial setting) is given as 80% and the IC50 [2] is given as 1.58 µM. The MIC [2] was 2 µM, the MIC50 (M. mycetomatis [8]) was 0.06 µg/mL and the activity at 2 µM (M. mycetomatis [5]) was 6.1%. The IC50 (M. mycetomatis strain P1 [6]) was 0.84 µM, the MIC (M. mycetomatis strain P1 [6]) was 2 µM and the IC50 (M. mycetomatis strain I1 [7]) was 0.78 µM. For the same compound, the MIC (M. mycetomatis strain I1 [7]) was 1 µM, the larval survival [9] was “No prolonged larval survival” and the “activity in M. mycetomatis mouse model” value [10] was “lack of activity”.
In the case of Cc1ccc(S(=O)(=O)/C=C/C#N)cc1 [bay117082], the “chemotaxis, phagocytosis and killing activity of neutrophils” value [11] is listed as “able to reduce”.
In the case of O=C(Nc1ccc([N+](=O)[O-])cc1Cl)c1cc(Cl)ccc1O [niclosamide], the “activity against M. mycetomatis” value (M. mycetomatis [12]) is listed as “active”.
Compound Cc1c(N)nc([C@H](CC(N)=O)NC[C@H](N)C(N)=O)nc1C(=O)N[C@H](C(=O)N[C@H](C)[C@@H](O)[C@H](C)C(=O)N[C@H](C(=O)NCCc1nc(-c2nc(C(=O)NCCCNCCCCN)cs2)cs1)[C@@H](C)O)[C@@H](O[C@@H]1O[C@@H](CO)[C@@H](O)[C@H](O)[C@@H]1O[C@@H]1O[C@H](CO)[C@@H](O)[C@H](OC(N)=O)[C@@H]1O)c1cnc[nH]1 [ONC0002990, bleomycetin] has an IC50 (M. mycetomatis strain P1 [13]) of less than 0.03 µM, an MIC (M. mycetomatis strain P1 [13]) of less than 0.03 µM and an IC50 [14] of 0.21 µM. It also gave an MIC [14] of 0.5 µM (≈ 0.72 µg/mL), an IC50 (M. mycetomatis strain I1 [15]) of 0.2 µM and an MIC (M. mycetomatis strain I1 [15]) of 0.5 µM (≈ 0.72 µg/mL).
For CC(C)(C)c1ccc(S(=O)(=O)/C=C/C#N)cc1 [bay117085], the “Toxicity in G. mellonella larvae at 20 µM” value [1] was “not toxic”, the larval survival [1] was “above 80%” and the IC50 [2] was 1.51 µM. The MIC [2] was 2 µM (≈ 0.499 µg/mL), the “Survival of M. mycetomatis-infected larvae versus PBS” value [4] was “prolonged the survival; also recorded: prolonged larval survival” and the activity at 2 µM (M. mycetomatis [5]) was 4%. For the same compound, the thioredoxin reductase inhibition (thioredoxin reductase) was “able to inhibit thioredoxin reductase”, the IC50 (M. mycetomatis strain P1 [6]) was 0.85 µM and the MIC (M. mycetomatis strain P1 [6]) was 2 µM (≈ 0.499 µg/mL). For the same compound, the IC50 (M. mycetomatis strain I1 [7]) was 0.72 µM and the MIC (M. mycetomatis strain I1 [7]) was 1 µM (≈ 0.249 µg/mL).
In the case of CC(=O)OC[C@H]1O[C@@H]([S-])[C@H](OC(C)=O)[C@@H](OC(C)=O)[C@@H]1OC(C)=O.CCP(CC)CC.[Au+] [auranofin], the Aspergillus biofilm formation [16] is given as “inhibitory activity”, the antifungal activity ([16]; itraconazole-susceptible and itraconazole-resistant A. fumigatus) is given as “potent antifungal activity” and the thioredoxin reductase inhibition (thioredoxin reductase) is given as “able to inhibit thioredoxin reductase”.
